This is an account of results in US6558900B2, “Regulation of apoptosis and in vitro model for studies thereof” (Emory University, priority 1996, dated 2003).

The test system of this experiment is hamster liver nuclei. The experiment can be described thus: Reconstitution of DNA fragmentation and nuclear morphological change in HeLa S-100 immunodepleted of cytochrome c. The format is biochemical. As to the method:
Cytochrome c present in the HeLa cell S-100 was immunodepleted as described in the Example 10. In FIG. 7A, 10 μl aliquots of HeLa S-100 (50 μg) (lanes 1 and 2), or 10 μl aliquots of HeLa S-100 immunodepleted of cytochrome c (lanes 3 and 4), or 10 μl of HeLa S-100 immunodepleted of cytochrome c supplemented with 0.2 μg Apaf-2 purified through the Mono S column (H) (lanes 5 and 6), bovine heart cytochrome c (B) (lanes 7 and 8), or rat liver cytochrome c (R) (lanes 9 and 10), were incubated with aliquots of 3 μl in vitro translated, ^35S-labeled CPP32 in the absence (lanes 1, 3, 5, 7, 9) or presence (lanes 2, 4, 6, 8, 10) of 1 mM dATP at 30° C. for 1 hr in a final reaction volume of 20 μl of buffer A. Samples were subjected to SDS-PAGE and transferred to a nitrocellulose filter which were then exposed to film for 16 hr at room temperature. In FIG. 7B, HeLa S-100 (50 μg) immunodepleted of cytochrome c were reconstituted with the indicated amount of Apaf-2 (purified through Mono S column step) in a CPP32 cleavage reaction as described in FIG. 7A. The cleaved products (p20) were quantified in a Fuji-1000 phosphorimager machine and plotted in comparison with that generated by HeLa S-100. In FIG. 7C, aliquots of 50 μl of HeLa S-100 (250 μg) (lanes 1 and 2), or 50 μl of HeLa S-100 immunodepleted of cytochrome c (lanes 3 and 4), or 50 μl of HeLa S-100 immunodepleted of cytochrome c supplemented with 1 μg apaf-2 purified through the Mono S column (H) (lanes 5 and 6), bovine heart cytochrome c (B) (lanes 7 and 8), or rat liver cytochrome c (R) (lanes 9 and 10), were incubated with aliquots of 6 μl hamster liver nuclei in the absence (lanes 1, 3, 5, 7, 9) or presence (lanes 2, 4, 6, 8, 10) of 1 mM dATP at 37° C. for 2 hr in a final reaction volume of 60 μl. The DNA were isolated as described in the Examples, analyzed on 2% agarose gel electrophoresis, and the DNA was visualized by ethidium bromide staining. In FIG. 7D, DNA fragmentation assays were carried out as in FIG. 7C using HeLa S-100 immunodepleted of cytochrome c alone (a,b) or supplemented with Apaf-2 purified through Mono S column step (c,d) in the absence (a,c) or presence of 1 mM dATP (b,d). After 2 hr incubation at 37° C., an aliquot of each reaction (30 μl) was stained with 4′,6′-diamidino-2-phenylindole (DAPI), and observed under a fluorescence microscope with a UV-2A combination filter.
To rule out the possibility that the Apaf-2 activity is due to a minor contaminating protein that co-purified with cytochrome c, an immunodepletion experiment was carried out using a monoclonal antibody against rat cytochrome c. This monoclonal antibody cross-reacts with purified Apaf-2. […]

With “Apaf-2: 15 kDa factor bound to phosphocellulose column, purified from HeLa S-100, identified as human cytochrome c”, the “restoration of DNA fragmentation” value (1 μg added to immunodepleted HeLa S-100, 1 mM dATP) is recorded as “restored”. Moreover, the “nuclear morphological change (DAPI)” value (immunodepleted S-100 supplemented with Apaf-2, 1 mM dATP) is recorded as “accompanied by the morphological change in the co-incubated nuclei that is characteristic of apoptosis”.
